Test results reported in US20250154590A1, “USE OF SET7/9 FOR DIAGNOSING AND TREATING ENDMT-RELATED DISEASE” (IBMSOL CO., LTD., priority 2021, published 2025).

Assays:
[1] = test system: pulmonary artery endothelial cells; experiment: Phalloidin staining of cytoskeleton change in EndMT-induced pulmonary artery endothelial cells; assay type: cell-based, human; conditions: TGF-β2, IL-1β and (R)-PFI-2; FIG. 9C
Procedure: PAECs and Lenti-X-293T were immobilized with 4% formaldehyde and washed with 1×PBS. Thereafter, the cells were permeabilized with 0.2% Triton X-100 and blocked with 1% BSA dissolved in 1×PBS for 1 hour at room temperature. The cells were reacted with the following primary antibodies at 4° C. overnight: anti-VE-cadherin (Cell Signaling, 2500S, 1:100), anti-Fibronectin (BD Pharmigen, 61007, 1:100), anti-TAGLN (Abcam, ab14106, 1:200), anti-α-SMA conjugated with Cy3 (Sigma Aldrich, C6198, 1:200), anti-NF-κB p65 (Cell signaling, 8242S, 1:400), anti-SET7/9 (LsBio, C337450, 1:100), and rhodamine phalloidin (Sigma Aldrich, 1:1,000). Secondary antibodies of donkey anti-goat Alexa Fluor 488 and donkey anti-goat Alexa Fluor 568 (Invitrogen, 1:400) were reacted at room temperature for 1 hour. In order to obtain immunostaining images, a confocal microscope equipped with a 60× objective lens (Zeiss LSM-700) was used.
In order to confirm the inhibitory effect of the drug on endothelial-mesenchymal transition, a model in which pulmonary artery endothelial cells were simultaneously treated with cyproheptadine along with TGF-β2 and IL-1β for 5 to 7 days was used. […]

[2] = test system: SuHx-induced pulmonary arterial hypertension rats; experiment: SuHx-induced pulmonary arterial hypertension animal model; assay type: in vivo, rat; conditions: subcutaneously 10 mg/kg for 3 weeks
Procedure: 8-Week-old male Sprague Dawley rats (specific-pathogen-free grade form SaeronBio, Republic of Korea) were used for the PAH rat model.
Semaxanib (DC Chemicals, SU5416) dissolved in DMSO and then suspended in a buffer (0.5% sodium carboxymethylcellulose, 0.5% sodium chloride, 0.4% Tween-80, and 0.9% benzyl alcohol that were dissolved in deionized water) was injected subcutaneously into the rats at 20 mg/kg. The rats were exposed to 10% 02 hypoxic conditions for 3 weeks. After the rats were restored to normoxic conditions, Cyproheptadine (Cayman) or (R)-PFI-2 (DC Chemicals) was administered. Cyproheptadine was administered intraperitoneally every day at 5 mg/kg for 2 weeks, and (R)-PFI-2 was administered subcutaneously every 2 days at 10 mg/kg for 3 weeks. A right ventricular systolic pressure (RVSP) was measured, and the rats were sacrificed.
Proteins were separated by sodium dodecyl sulfate polyacrylamide gel electrophoresis (SDS-PAGE) and transferred to a polyvinylidene difluoride membrane (Millipore). After blocking the membrane with 3% BSA dissolved in 0.2% PBS with Tween® detergent (PBST), the proteins on the membrane were reacted with the primary antibodies listed in Table 2 overnight. For immunodetection, HRP-conjugated secondary antibodies (1:4,000) were conjugated with the primary antibodies at room temperature for 1 hour (average temperature of 22° C.), and then detected using an enhanced chemiluminescence detection system (Thermo Scientific). In order to separate cytoplasmic and nuclear proteins, EpiQuik Nuclear Extraction Kit (EpiGentek) was used according to the manufacturer's instructions. Protein extracts from animal lung tissue were homogenized in RIPA buffer for 3 minutes at a frequency of 25 Hz.
The harvested animal lung tissue was embedded in paraffin blocks and cut into […] sections. The paraffin sections were deparaffinized using Histoclear for 10 minutes. In order to hydrate the sections, ethanol dissolved in pure water was used according to a concentration gradient (100%, 90%, 70%, 50%, 30%, and 0%). The tissue slides were placed in Borg Decloaker RTU antigen retrieval solution (Biocare Medical) and the sections were heated using a pressure cooker to recover antigens. When the temperature of the recovery solution was lowered, the sections were washed three times with 1×PBS for 5 minutes each, and then blocked with a blocking buffer (1% BSA and 5% goat serum dissolved in 1×PBS) at room temperature for 30 minutes. The sections were reacted with the primary antibodies at 4° C. overnight. Anti-vWF conjugated with FITC (Abcam, ab8822, 1:50), anti-α-SMA conjugated with Cy3 (Sigma Aldrich, C6198, 1:100), anti-SM22a (Abcam, ab14106, 1:130), and anti-SET7/9 (LsBio, C337450, 1:50) were used. For fluorescent staining, the sections were reacted with the secondary antibodies such as donkey anti-goat Alexa Fluor 568 (Invitrogen, 1:150 to 1:400), Goat anti-Rabbit Alexa Fluor 647 (Invitrogen, 1:150), and donkey anti-goat Alexa Fluor 568 (Invitrogen, 1:400) at room temperature for 1 hour. For color staining, after the sections were reacted with the primary antibodies overnight, the sections were reacted with Goat anti-Mouse IgG Secondary Antibody, HRP (Pierce, 1:100) for 1 hour and subjected to a color reaction using DAB staining kit (Vector, SK-4800). Hematoxylin-eosin staining was performed using staining products available from Vector. Image analysis was performed using confocal microscopes equipped with a 40× objective available from Zeiss and Leica. The co-localization effect was verified through Mander's overlap coefficient (MOC). […]
In order to confirm the effect of (R)-PFI-2 in an animal model, (R)-PFI-2 was administered subcutaneously to SuHx-induced pulmonary arterial hypertension rats at a concentration of 10 mg/kg for 3 weeks. […]

SET7/9 = biological target: T1, SET7/9 (Homo sapiens, UniProt Q8WTS6); conditions: acts by attaching to the substrate peptide binding groove of SET7/9; cited from earlier work
T1 sequence (Q8WTS6 1-366): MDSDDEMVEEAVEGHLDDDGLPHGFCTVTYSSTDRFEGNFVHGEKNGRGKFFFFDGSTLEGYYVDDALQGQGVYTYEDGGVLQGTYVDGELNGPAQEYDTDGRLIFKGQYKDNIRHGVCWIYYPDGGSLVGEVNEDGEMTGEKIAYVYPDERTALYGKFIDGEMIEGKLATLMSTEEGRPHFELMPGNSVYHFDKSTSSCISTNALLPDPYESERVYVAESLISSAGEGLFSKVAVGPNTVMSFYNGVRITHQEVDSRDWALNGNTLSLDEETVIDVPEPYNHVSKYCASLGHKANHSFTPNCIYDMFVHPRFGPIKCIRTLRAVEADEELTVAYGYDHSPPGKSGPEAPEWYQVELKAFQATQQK

[3] = test system: pulmonary artery endothelial cells; experiment: EndMT marker expression (Western blot, qRT-PCR) in pulmonary artery endothelial cells treated with TGF-β2 and IL-1β; assay type: cell-based, human; conditions: PAECs treated simultaneously with TGF-β2, IL-1β and (R)-PFI-2
Procedure: Pulmonary arterial ECs (PAECs) and human umbilical vein ECs (HUVECs) were cultured in EGM-2 (Lonza) to which MycoZap (Lonza) and 1% penicillin-streptomycin (Welgene) were added. Human Microvascular ECs (HMVECs) were cultured in EGM-2-MV (Lonza), and Lenti-λ-293T and MCF7 cells were cultured in Dulbecco's modified Eagle medium (DMEM) (HyClone) containing 10% fetal bovine serum (FBS, HyClone), 1% penicillin-streptomycin (Welgene), and MycoZap (Lonza). All cell lines were cultured at 37° C. in a 5% CO2 incubator and cultured at 90% density.
TGF-β2 was purchased from Peprotech and dissolved in pure water containing 0.1% bovine serum albumin (BSA). IL-1β was purchased from R&D System and dissolved in 1×PBS containing 0.1% BSA. […]
In order to isolate the total RNA, miRNeasy RNA isolation kit (QIAGEN) was used. The purified RNA was reverse transcribed using qPCRBIO cDNA Synthesis Kit (PCR-BIOSYSTEMS), and real-time quantitative PCR (qRT-PCR) was performed using qPCRBIO SyGreen Mix Hi-ROX (PCR-BIOSYSTEMS) according to the manufacturer's instructions. […]
All cells were lysed in radioimmunoprecipitation assay (RIPA) buffer (Biosesang) containing protease (GenDepot) and phosphatase (Sigma Aldrich) inhibitors for 20 minutes. […] A protein concentration was measured using Pierce BCA Protein Assay Kit (Thermo Scientific), and Laemmli SDS Sample Buffer was added to an equal amount of protein and boiled. […]

PAECs [4] = experiment: Dextran permeation assay; assay type: cell-based, human; conditions: TGF-β2, IL-1β and (R)-PFI-2; FIG. 9D
Procedure: PAECs were seeded at 2×10^5 cells per well in a 24-well plate equipped with a cell culture inlet (SPL, 0.4 μm). After a drug treatment, the insert was transferred to a well containing a serum-free medium (SFM), the medium in the insert was replaced with SFM containing FITC-dextran (Sigma Aldrich, FD40S, 1 mg/ml). After 10 minutes and 1 hour, a part of SFM was taken out from the plate well where dextran permeation occurred, and the fluorescence was measured. The fluorescence intensity was measured on a microplate reader (excitation, 485 nm; emission, 530 nm).

PAECs [5] = experiment: Dil-Ac-LDL uptake assay; assay type: cell-based, human; conditions: TGF-β2, IL-1β and (R)-PFI-2; FIG. 9E
Procedure: PAECs were seeded at 2×10^5 cells per well in a 12-well plate. After a drug treatment, the cells were reacted with Dil-Ac-LDL (Invitrogen, 10 μg/ml) at 37° C. for 3 hours. After the reaction, the cells were washed four times with 1×PBS and then subjected to image analysis with a fluorescence microscope.

Compound: O=C([C@@H](Cc1cccc(C(F)(F)F)c1)NS(=O)(=O)c1cc(F)c2c(c1)CCNC2)N1CCCC1 [(R)-PFI-2]
- change in cytoskeleton (phalloidin staining) [1]: reduced
- SET7/9 expression in blood vessels ([2]; SuHx rat lung tissue, FIG. 10D): decrease
- area where endothelial and mesenchymal cell markers were simultaneously stained (EndMT) ([2]; SuHx rat lung tissue, FIG. 10D): decrease
- right ventricular systolic pressure (RVSP mmHg) ([2]; SuHx rats, FIG. 10A): decreased
- right ventricle/left ventricle+septum ratio (RV/LV+S %) ([2]; SuHx rats, FIG. 10B): decreased
- right ventricle weight (RV mg) ([2]; SuHx rats, FIG. 10C): decreased
- muscularization of lung tissue blood vessels (immunohistochemical staining) ([2]; SuHx rats, FIG. 10D): significantly reduced
- expression of TGFβR1 in lung tissue ([2]; SuHx rats, FIG. 10F): decreased
- expression of mesenchymal cell markers such as Twist and pVIM in lung tissue ([2]; SuHx rats, FIG. 10F): decreased
- expression of phosphorylated SMAD2 protein in lung tissue ([2]; SuHx rats, FIG. 10F): significantly decreased
- number of blocked or enlarged blood vessels in lung tissue (H&E staining) ([2]; compared to SuHx group, FIG. 10E): reduced
- mode of inhibition of SET7/9 (SET7/9): substrate competitive inhibitor
- expression of endothelial cell marker CD31 and mesenchymal cell markers TNC, FN, Calponin, SM22α (Western blot) ([3]; FIG. 9A): restoration
- expression of PECAM1 and FN, CDH2, COL3A1 (qRT-PCR) ([3]; FIG. 9B): restoration
- permeability (PAECs [4]): restored
- Dil-Ac-LDL uptake ability (PAECs [5]): restored
